Like-named read-outs stand apart in the source and are kept apart here.
Tested on: test plant species
Assay: Post-emergent herbicidal activity test (greenhouse, foliar spray, visual growth reduction)
Type: in vivo
Conditions: post-emergence, 336 h, 140 g ai/ha
Summary of the method: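 Visual percent injury (0-100) rated 14 d after treatment, relative to nontreated and solvent-blank plants. Test plants at first or second true leaf stage received an overhead track-sprayer application at 187 L/ha. Compounds were formulated in aqueous acetone/DMSO carrier containing crop oil concentrate and X-77 surfactant.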

[1] = ALOMY: blackgrass (Alopecurus myosuroides), 14 days after application, read-out: Visual Growth Reduction (%) 14 Days After Application, ALOMY
[2] = AMARE: redroot pigweed (Amaranthus retroflexus), 14 days after application, read-out: Visual Growth Reduction (%) 14 Days After Application, AMARE
[3] = AVEFA: wild oat (Avena fatua), 14 days after application, read-out: Visual Growth Reduction (%) 14 Days After Application, AVEFA
[4] = CHEAL: lambsquarters (Chenopodium album), 14 days after application, read-out: Visual Growth Reduction (%) 14 Days After Application, CHEAL
[5] = CIRAR: canada thistle (Cirsium arvense), 14 days after application, read-out: Visual Growth Reduction (%) 14 Days After Application, CIRAR
[6] = CYPES: yellow nutsedge (Cyperus esculentus), 14 days after application, read-out: Visual Growth Reduction (%) 14 Days After Application, CYPES
[7] = DIGSA: crabgrass (Digitaria sanguinalis), 14 days after application, read-out: Visual Growth Reduction (%) 14 Days After Application, DIGSA
[8] = ECHCG: barnyardgrass (Echinochloa crus-galli), 14 days after application, read-out: Visual Growth Reduction (%) 14 Days After Application, ECHCG
[9] = IPOHE: ivy-leaf morning glory (Ipomoea hederacea), 14 days after application, read-out: Visual Growth Reduction (%) 14 Days After Application, IPOHE
[10] = KCHSC: kochia (Bassia scoparia), 14 days after application, read-out: Visual Growth Reduction (%) 14 Days After Application, KCHSC
[11] = ORYSA: rice (Oryza sativa), 14 days after application, read-out: Visual Growth Reduction (%) 14 Days After Application, ORYSA
[12] = SETFA: giant foxtail (Setaria faberi), 14 days after application, read-out: Visual Growth Reduction (%) 14 Days After Application, SETFA
[13] = SORVU: grain sorghum (Sorghum vulgare), 14 days after application, read-out: Visual Growth Reduction (%) 14 Days After Application, SORVU
[14] = STEME: common chickweed (Stellaria media), 14 days after application, read-out: Visual Growth Reduction (%) 14 Days After Application, STEME
[15] = TRZAS: wheat, spring (Triticum aestivum), 14 days after application, read-out: Visual Growth Reduction (%) 14 Days After Application, TRZAS
[16] = blackgrass (Alopecurus myosuroides), 14 Days After Application, read-out: Visual Growth Reduction (%) ALOMY
[17] = canada thistle (Cirsium arvense), 14 Days After Application, read-out: Visual Growth Reduction (%) CIRAR
[18] = crabgrass (Digitaria sanguinalis), 14 Days After Application, read-out: Visual Growth Reduction (%) DIGSA
[19] = lambsquarters (Chenopodium album), 14 Days After Application, read-out: Visual Growth Reduction (%) CHEAL
[20] = redroot pigweed (Amaranthus retroflexus), 14 Days After Application, read-out: Visual Growth Reduction (%) AMARE
[21] = wild oat (Avena fatua), 14 Days After Application, read-out: Visual Growth Reduction (%) AVEFA
[22] = yellow nutsedge (Cyperus esculentus), 14 Days After Application, read-out: Visual Growth Reduction (%) CYPES

Row | Compound | pest or weed control at 140 g/ha [1] [%] | pest or weed control at 140 g/ha [2] [%] | pest or weed control at 140 g/ha [3] [%] | pest or weed control at 140 g/ha [4] [%] | pest or weed control at 140 g/ha [5] [%] | pest or weed control at 140 g/ha [6] [%] | pest or weed control at 140 g/ha [7] [%] | pest or weed control at 140 g/ha [8] [%] | pest or weed control at 140 g/ha [9] [%] | pest or weed control at 140 g/ha [10] [%] | pest or weed control at 140 g/ha [11] [%] | pest or weed control at 140 g/ha [12] [%] | pest or weed control at 140 g/ha [13] [%] | pest or weed control at 140 g/ha [14] [%] | pest or weed control at 140 g/ha [15] [%] | pest or weed control at 140 g/ha [16] [%] | pest or weed control at 140 g/ha [17] [%] | pest or weed control at 140 g/ha [18] [%] | pest or weed control at 140 g/ha [19] [%] | pest or weed control at 140 g/ha [20] [%] | further results
1 | O=C(O)c1nc(-c2cc3c(cc2Cl)OC(F)(F)O3)ccc1Cl [F126] | 0 to 29 | 95 to 100 | 0 to 29 | 85 to 94 | 75 to 84 | 0 to 29 | 85 to 94 | 60 to 74 | 95 to 100 | 60 to 74 | 0 to 29 | 60 to 74 | 75 to 84 | 0 to 29 | 75 to 84 |  |  |  |  |  | 
2 | COC(=O)c1nc(-c2ccc(SC(F)(F)F)cc2Cl)c(Cl)cc1Cl [F130, Methyl 3,5-dichloro-6-(2-chloro-4-((trifluoromethyl)thio)phenyl) picolinate] | 0 to 29 | 85 to 94 | 0 to 29 | 75 to 84 | 75 to 84 | 0 to 29 | 60 to 74 | 0 to 29 | 30 to 44 | 60 to 74 | 0 to 29 | 60 to 74 | 30 to 44 | 0 to 29 | 0 to 29 |  |  |  |  |  | 
3 | COC(=O)c1nc(-c2ccc(Cl)c(F)c2F)ccc1Cl [F71, Methyl 3-chloro-6-(4-chloro-2,3-difluorophenyl) picolinate] | 0 to 29 | 95 to 100 | 0 to 29 | 95 to 100 | 75 to 84 | 60 to 74 | 75 to 84 | 0 to 29 | 95 to 100 |  | 30 to 44 |  | 75 to 84 | 45 to 59 |  |  |  |  |  |  | 
4 | COC(=O)c1nc(-c2ccc(SC(F)(F)F)cc2)c(F)cc1Cl [F91, Methyl 3-chloro-5-fluoro-6-(4-((trifluoromethyl)thio)phenyl) picolinate] | 0 to 29 | 0 to 29 | 0 to 29 | 0 to 29 | 30 to 44 | 0 to 29 | 0 to 29 | 0 to 29 | 30 to 44 | 0 to 29 | 0 to 29 | 0 to 29 | 0 to 29 | 0 to 29 | 0 to 29 |  |  |  |  |  | 
5 | COC(=O)c1nc(-c2c(Cl)cc(C(F)(F)F)cc2S(C)(=O)=O)ccc1Cl [F138, methyl 3-chloro-6-(2-chloro-6-(methylsulfonyl)-4-(trifluoromethyl)phenyl)picolinate] | 0 to 29 | 85 to 94 | 0 to 29 | 60 to 74 | 60 to 74 | 0 to 29 | 0 to 29 | 0 to 29 | 75 to 84 | 60 to 74 | 0 to 29 | 0 to 29 | 0 to 29 | 0 to 29 | 0 to 29 |  |  |  |  |  | 
6 | COC(=O)c1nc(-c2cccc(OC(F)(F)F)c2F)ccc1Cl [F290, Methyl 3-chloro-6-(2-fluoro-3-(trifluoromethoxy)phenyl)picolinate] |  |  |  |  |  |  |  | 0 to 29 | 75 to 84 | 0 to 29 | 0 to 29 | 0 to 29 | 0 to 29 | 0 to 29 | 0 to 29 | 0 to 29 | 0 to 29 | 0 to 29 | 0 to 29 | 0 to 29 | pest or weed control at 140 g/ha [21]: 0 to 29%; pest or weed control at 140 g/ha [22]: 60 to 74%
7 | CCOc1cc(C(F)(F)F)ccc1-c1nc(C(=O)OC)c(Cl)cc1F [F311, Methyl 3-chloro-6-(2-ethoxy-4-(trifluoromethyl)phenyl)-5-fluoropicolinate] |  |  |  |  |  |  |  | 0 to 29 | 95 to 100 | 0 to 29 | 0 to 29 | 0 to 29 | 75 to 84 | 0 to 29 | 0 to 29 | 0 to 29 | 0 to 29 | 0 to 29 | 30 to 44 | 0 to 29 | pest or weed control at 140 g/ha [21]: 0 to 29%; pest or weed control at 140 g/ha [22]: 0 to 29%
8 | COC(=O)c1nc(-c2ccc(Cl)nc2Cl)ccc1Cl [F284, Methyl 2′,5,6′-trichloro-[2,3′-bipyridine]-6-carboxylate] |  |  |  |  |  |  |  | 0 to 29 | 60 to 74 | 0 to 29 | 0 to 29 | 0 to 29 | 85 to 94 | 0 to 29 | 0 to 29 | 0 to 29 | 30 to 44 | 0 to 29 | 0 to 29 | 0 to 29 | pest or weed control at 140 g/ha [21]: 0 to 29%; pest or weed control at 140 g/ha [22]: 0 to 29%
9 | O=C(O)c1nc(-c2ccc(OC(F)(F)F)cc2Cl)ccc1Cl [F226, 3-Chloro-6-(2-chloro-4-4-(trifluoromethoxy)phenyl)picolinic acid] |  |  |  |  |  |  |  | 60 to 74 | 95 to 100 | 60 to 74 | 0 to 29 | 85 to 94 | 85 to 94 | 0 to 29 | 45 to 59 | 45 to 59 | 85 to 94 | 95 to 100 | 95 to 100 | 60 to 74 | pest or weed control at 140 g/ha [21]: 45 to 59%; pest or weed control at 140 g/ha [22]: 0 to 29%
10 | O=C(O)c1nc(-c2ccc(SC(F)(F)F)cc2Cl)c(F)cc1Cl [F131, 3-Chloro-6-(2-chloro-4-((trifluoromethyl)thio)phenyl)-5-fluoropicolinic acid] | 45 to 59 | 95 to 100 | 75 to 84 | 95 to 100 | 95 to 100 | 0 to 29 | 95 to 100 | 60 to 74 | 95 to 100 | 95 to 100 | 30 to 44 | 85 to 94 | 85 to 94 | 0 to 29 | 60 to 74 |  |  |  |  |  | 

Source: patent US20230017045A1, “PYRIDINE AND PYRIMIDINE CARBOXYLATE HERBICIDES AND METHODS OF USE THEREOF” (Dow AgroSciences LLC, priority 2017, published 2023)
